In the NIST ThermoML archive (doi:10.1021/je200811n):

Conditions: Hot wire method

F/C=C/C(F)(F)F [trans-1,3,3,3-tetrafluoropropene]
Conditions	thermal conductivity [W/m/K]
281.63 K, 15232 kPa, Liquid	0.08862
281.67 K, 23307 kPa, Liquid	0.09249
281.68 K, 20203 kPa, Liquid	0.09077
281.7 K, 445 kPa, Liquid	0.08035
281.71 K, 5379 kPa, Liquid	0.08327
281.72 K, 15226 kPa, Liquid	0.08837
281.76 K, 10284 kPa, Liquid	0.08598
281.8 K, 5372 kPa, Liquid	0.08315
281.82 K, 242 kPa, Gas	0.01258
281.84 K, 200 kPa, Gas	0.01237
281.86 K, 99 kPa, Gas	0.01213
281.86 K, 141 kPa, Gas	0.01223
282.04 K, 23299 kPa, Liquid	0.09237
282.06 K, 242 kPa, Gas	0.01258
282.06 K, 20222 kPa, Liquid	0.09082
282.07 K, 438 kPa, Liquid	0.07934
282.1 K, 200 kPa, Gas	0.01234
282.13 K, 98 kPa, Gas	0.01208
282.13 K, 140 kPa, Gas	0.01217
282.14 K, 434 kPa, Liquid	0.07983
282.14 K, 10286 kPa, Liquid	0.08591
282.15 K, 23304 kPa, Liquid	0.09213
282.17 K, 20224 kPa, Liquid	0.09064
282.2 K, 5363 kPa, Liquid	0.08314
282.21 K, 15223 kPa, Liquid	0.08817
282.28 K, 10288 kPa, Liquid	0.08566
282.31 K, 242 kPa, Gas	0.01258
282.32 K, 5352 kPa, Liquid	0.08296
282.36 K, 200 kPa, Gas	0.0123
282.4 K, 138 kPa, Gas	0.01213
282.52 K, 245 kPa, Gas	0.01231
282.54 K, 431 kPa, Liquid	0.07937
282.54 K, 23312 kPa, Liquid	0.09188
282.58 K, 200 kPa, Gas	0.01226
282.58 K, 20215 kPa, Liquid	0.09057
282.63 K, 428 kPa, Liquid	0.07955
282.64 K, 15228 kPa, Liquid	0.08812
282.67 K, 145 kPa, Gas	0.01228
282.69 K, 23303 kPa, Liquid	0.09187
282.7 K, 10287 kPa, Liquid	0.0852
282.73 K, 20227 kPa, Liquid	0.09025
282.76 K, 103 kPa, Gas	0.01237
282.77 K, 5352 kPa, Liquid	0.08245
282.79 K, 15232 kPa, Liquid	0.0878
282.86 K, 10284 kPa, Liquid	0.08516
282.9 K, 243 kPa, Gas	0.01231
282.94 K, 5351 kPa, Liquid	0.08227
282.95 K, 199 kPa, Gas	0.01234
283.04 K, 425 kPa, Liquid	0.07934
283.07 K, 143 kPa, Gas	0.01233
283.13 K, 23323 kPa, Liquid	0.0916
283.15 K, 424 kPa, Liquid	0.0789
283.17 K, 20222 kPa, Liquid	0.08992
283.19 K, 101 kPa, Gas	0.01241
283.23 K, 15235 kPa, Liquid	0.08758
283.26 K, 280 kPa, Gas	0.01243
283.3 K, 242 kPa, Gas	0.01229
283.33 K, 10277 kPa, Liquid	0.08464
283.35 K, 20230 kPa, Liquid	0.08937
283.37 K, 199 kPa, Gas	0.01232
283.41 K, 5347 kPa, Liquid	0.08183
283.44 K, 15228 kPa, Liquid	0.08686
283.5 K, 142 kPa, Gas	0.01236
283.52 K, 10279 kPa, Liquid	0.08429
283.62 K, 5351 kPa, Liquid	0.08173
283.63 K, 100 kPa, Gas	0.01246
283.64 K, 280 kPa, Gas	0.0125
283.73 K, 242 kPa, Gas	0.01238
283.81 K, 200 kPa, Gas	0.01236
283.96 K, 140 kPa, Gas	0.01236
284.06 K, 280 kPa, Gas	0.01255
284.11 K, 98 kPa, Gas	0.01249
284.18 K, 242 kPa, Gas	0.01239
284.26 K, 200 kPa, Gas	0.01238
284.45 K, 139 kPa, Gas	0.01242
284.62 K, 97 kPa, Gas	0.0125
291.03 K, 97 kPa, Gas	0.01317
291.05 K, 154 kPa, Gas	0.0132
291.06 K, 237 kPa, Gas	0.01331
291.26 K, 96 kPa, Gas	0.013
291.28 K, 154 kPa, Gas	0.01305
291.28 K, 236 kPa, Gas	0.01323
291.51 K, 234 kPa, Gas	0.01316
291.52 K, 95 kPa, Gas	0.01287
291.52 K, 155 kPa, Gas	0.01297
291.76 K, 232 kPa, Gas	0.01312
291.79 K, 95 kPa, Gas	0.01281
291.79 K, 155 kPa, Gas	0.01291
292.02 K, 231 kPa, Gas	0.01307
292.06 K, 94 kPa, Gas	0.01276
292.06 K, 155 kPa, Gas	0.01287
292.13 K, 314 kPa, Gas	0.01299
292.21 K, 238 kPa, Gas	0.01305
292.32 K, 154 kPa, Gas	0.01313
292.44 K, 97 kPa, Gas	0.01319
292.5 K, 311 kPa, Gas	0.01305
292.51 K, 336 kPa, Gas	0.0131
292.59 K, 236 kPa, Gas	0.01303
292.72 K, 154 kPa, Gas	0.01308
292.85 K, 96 kPa, Gas	0.01324
292.88 K, 308 kPa, Gas	0.01303
292.89 K, 333 kPa, Gas	0.01312
292.98 K, 235 kPa, Gas	0.01313
293.14 K, 154 kPa, Gas	0.01304
293.29 K, 330 kPa, Gas	0.01314
293.3 K, 95 kPa, Gas	0.01322
293.3 K, 306 kPa, Gas	0.0131
293.32 K, 349 kPa, Gas	0.01317
293.41 K, 233 kPa, Gas	0.01314
293.54 K, 400 kPa, Gas	0.01316
293.58 K, 155 kPa, Gas	0.01322
293.68 K, 347 kPa, Gas	0.01318
293.72 K, 327 kPa, Gas	0.01313

Liquid
Conditions	thermal conductivity [W/m/K]
283.15 K	0.07962
293.15 K	0.07611
